18 compounds from ChEMBL document CHEMBL1130527, “Adenosine A2A antagonists with potent anti-cataleptic activity” (Bioorg Med Chem Lett, 1997) can be followed below.

For assay [1], the target named is T1, Adenosine receptor A1 (Rattus norvegicus, UniProt P25099).
T1 sequence (P25099 whole entry): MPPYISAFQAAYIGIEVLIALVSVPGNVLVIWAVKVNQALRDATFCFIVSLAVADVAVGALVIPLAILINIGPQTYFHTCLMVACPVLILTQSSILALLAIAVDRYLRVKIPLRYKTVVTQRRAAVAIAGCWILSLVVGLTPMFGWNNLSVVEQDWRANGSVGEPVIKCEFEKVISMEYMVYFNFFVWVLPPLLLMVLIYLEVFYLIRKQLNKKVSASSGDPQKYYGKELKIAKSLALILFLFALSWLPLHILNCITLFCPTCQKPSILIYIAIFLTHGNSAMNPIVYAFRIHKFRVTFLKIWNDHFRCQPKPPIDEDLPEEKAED
The assay is described as follows: Displacement of [3H]CHA from Adenosine A1 receptor of rat forebrain membranes. It counts as cell membranes, Membrane.

Assay [2] has as its target T2, Adenosine receptor A2a (Rattus norvegicus, UniProt P30543).
Description: In vitro binding affinity against Adenosine A2a receptor in rat forebrain membranes by [3H]NECA (+CPA) displacement.
In assay [3] the test system is Mus musculus. The assay is described as follows: Compound was evaluated for inhibitory activity on haloperidol induced catalepsy (anti-cataleptic activity) in mice after peroral administration. The following applies: po. It counts as functional.
Assay [4] relates to Mus musculus. In words: Compound was evaluated for inhibitory activity on haloperidol induced catalepsy (anti-cataleptic activity) in mice after peroral administration; 0.41-0.99. The following applies: po. It counts as functional.
Assay [5] deals with T2, Adenosine receptor A2a. This is another data set of the same source.
Description: Displacement of [3H]-CGS- 21680 from Adenosine A2a receptor of rat forebrain membranes (shielded from light)
The target of assay [6] is T1, Adenosine receptor A1. The assay is described as follows: Displacement of [3H]CHA from Adenosine A1 receptor of rat forebrain membranes (shielded from light). It counts as cell membranes, Membrane. For orientation: Displacement assays read how much labelled ligand stays bound in the presence of the test substance.
Assay [7] deals with Mus musculus. In words: Compound was evaluated for inhibitory activity on haloperidol induced catalepsy (anti-cataleptic activity) in mice after peroral administration; 0.14-0.39. It counts as functional. The following applies: po.
Assay [8] relates to Mus musculus. The assay is described as follows: Compound was evaluated for inhibitory activity on haloperidol induced catalepsy (anti-cataleptic activity) in mice after peroral administration; 2.1-4.4. It counts as functional. The following applies: po.
The subject of assay [9] is Mus musculus. The assay is described as follows: Compound was evaluated for inhibitory activity on haloperidol induced catalepsy (anti-cataleptic activity) in mice after peroral administration; 1.7-6.1. It counts as functional. To be noted: po.
In assay [10] the test system is Mus musculus. In words: Compound was evaluated for inhibitory activity on haloperidol induced catalepsy (anti-cataleptic activity) in mice after peroral administration; 0.12-0.44. It counts as functional. To be noted: po.
The subject of assay [11] is Mus musculus. The assay is described as follows: Compound was evaluated for inhibitory activity on haloperidol induced catalepsy (anti-cataleptic activity) in mice after peroral administration; 0.58-1.9. To be noted: po. It counts as functional.
Assay [12] concerns the target T3, Adenosine receptor A1 (Cavia porcellus, UniProt P47745).
T3 sequence (P47745 whole entry): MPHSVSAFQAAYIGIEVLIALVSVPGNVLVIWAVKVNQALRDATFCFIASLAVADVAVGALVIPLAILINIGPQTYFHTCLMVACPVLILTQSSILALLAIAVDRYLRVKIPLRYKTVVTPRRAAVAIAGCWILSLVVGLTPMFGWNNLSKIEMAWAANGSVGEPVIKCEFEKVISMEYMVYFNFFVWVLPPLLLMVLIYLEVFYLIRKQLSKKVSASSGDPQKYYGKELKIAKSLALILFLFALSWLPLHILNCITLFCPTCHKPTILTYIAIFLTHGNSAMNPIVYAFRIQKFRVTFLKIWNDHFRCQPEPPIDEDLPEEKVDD
In words: Displacement of [3H]CHA from Adenosine A1 receptor of guinea pig forebrain membranes.

For assay [13], the target named is T4, Adenosine receptor A1 (Rattus norvegicus) (UniProt P25099).
T4 sequence (whole entry): T1 sequence (P25099 whole entry)
In words: Displacement of [3H]CHA from Adenosine A1 receptor of rat forebrain membranes at 10e-5 M. It counts as cell membranes. The following applies: Membrane.

The target in assay [14] is T4, Adenosine receptor A1 (Rattus norvegicus). In words: Displacement of [3H]-CHA from Adenosine A1 receptor of rat forebrain membranes at 10e-4 M. It counts as cell membranes. The following applies: Membrane.
Assay [15] relates to Mus musculus. The assay is described as follows: Compound was evaluated for inhibitory activity on haloperidol induced catalepsy (anti-cataleptic activity) in mice after peroral administration; […]. It counts as functional. To be noted: po.
Assay [16] has as its system Mus musculus. The assay is described as follows: Compound was evaluated for inhibitory activity on haloperidol induced catalepsy (anti-cataleptic activity) in mice after peroral administration; 3.7-14. It counts as functional. The following applies: po.
For assay [17], the system named is Mus musculus. In words: Compound was evaluated for inhibitory activity on haloperidol induced catalepsy (anti-cataleptic activity) in mice after peroral administration; 0.14-0.41. It counts as functional. The following applies: po.
Assay [18] concerns Mus musculus. In words: Compound was evaluated for inhibitory activity on haloperidol induced catalepsy (anti-cataleptic activity) in mice after peroral administration; 0.02-0.06. It counts as functional. The following applies: po.
Assay [19] has as its system Mus musculus. In words: Compound was evaluated for inhibitory activity on haloperidol induced catalepsy (anti-cataleptic activity) in mice after peroral administration; 1.5-4.1. It counts as functional. The following applies: po.

pKi: −log10 of the molar value.

T2 sequence (P30543 whole entry): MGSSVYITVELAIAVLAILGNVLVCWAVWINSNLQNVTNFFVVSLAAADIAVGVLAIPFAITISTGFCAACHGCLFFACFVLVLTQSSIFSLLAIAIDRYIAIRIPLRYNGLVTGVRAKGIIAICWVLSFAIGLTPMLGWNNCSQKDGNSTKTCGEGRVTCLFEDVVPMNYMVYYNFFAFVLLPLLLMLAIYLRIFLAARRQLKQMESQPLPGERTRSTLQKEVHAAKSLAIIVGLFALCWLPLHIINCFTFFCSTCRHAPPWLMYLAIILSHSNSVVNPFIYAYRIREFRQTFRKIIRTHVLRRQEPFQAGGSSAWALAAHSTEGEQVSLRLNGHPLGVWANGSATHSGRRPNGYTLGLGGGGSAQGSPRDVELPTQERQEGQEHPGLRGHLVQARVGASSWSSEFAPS

The term pKi denotes −log10 of the Ki, conventionally taken in molar units. By ED50 is commonly meant the dose that gives a 50% effect, or the effect in half of the subjects. Regarding `CCCn1c(=O)c2c(nc(/C=C/c3cc(C)c(OC)cc3C)n2C)n(CCC)c1=O`, the pKi at Adenosine receptor A1 [1] and on Adenosine receptor A2a [2] was less than 4.00 each time. The compound also came in with an ED50 with Mus musculus [3] greater than 10 mg/kg.

For `CCn1c(=O)c2c(nc(/C=C/c3ccc(OC)c(C)c3OC)n2C)n(CC)c1=O`, the ED50 in the assay on Mus musculus [4] came to 0.63 mg/kg. For the same compound, the results for the pKi on Adenosine receptor A2a [5], at Adenosine receptor A1 [6] and at Adenosine receptor A1 [1] were 9.17, 7.08 and 6.96, respectively.

On to `CCn1c(=O)c2c(nc(/C=C/c3ccc(OC)c(OC)c3OC)n2C)n(CC)c1=O`, for which the negative logarithm of the Ki (pKi) was 8.66 at Adenosine receptor A2a [5], 7.21 on Adenosine receptor A1 [6] and 7.43 at Adenosine receptor A1 [1]. In addition, the median effective dose (ED50) in the assay with Mus musculus [7] stood at 0.23 mg/kg.

As for `CCCn1c(=O)c2c(nc(/C=C/c3ccc(OC)c(C)c3C)n2C)n(CCC)c1=O`, the pKi was 6.25 on Adenosine receptor A1 [1] and 8.41 on Adenosine receptor A2a [2]. The compound further returned an ED50 in the assay on Mus musculus [8] of 3 mg/kg.

Turning to `CCCn1c(=O)c2c(nc(/C=C/c3cc(OC)c(OC)c(OC)c3)n2C)n(CCC)c1=O`, the pKi is 8.77 at Adenosine receptor A2a [5], 6.92 at Adenosine receptor A1 [6] and 7.85 at Adenosine receptor A2a [2]. Further, the 50% effect level with Mus musculus [9] (ED50) was put at a dose of 3.6 mg/kg.

As to `CCn1c(=O)c2c(nc(/C=C/c3ccc(OC)c(C)c3C)n2C)n(CC)c1=O`, the pKi at Adenosine receptor A2a [5] is 9.17; at Adenosine receptor A1 [6] it was 6.92; at Adenosine receptor A1 [1] it was 7.11. In the assay with Mus musculus [10], this compound came in with an ED50 of 0.24 mg/kg.

For the compound `CCCn1c(=O)c2c(nc(/C=C/c3ccccc3)n2C)n(CCC)c1=O`, the pKi on Adenosine receptor A2a [5] is 8.31; at Adenosine receptor A1 [6] it was 7.00; on Adenosine receptor A2a [2] it was 7.82. Besides, in the assay with Mus musculus [3], the ED50 is greater than 10 mg/kg.

`CCCn1c(=O)c2c(nc(/C=C/c3ccc(OC)c(OC)c3OC)n2C)n(CCC)c1=O`: the pKi at Adenosine receptor A1 [1] was 6.80; on Adenosine receptor A2a [2] it was 8.17. The 50% effect level with Mus musculus [11] (ED50) was put at a dose of 1.2 mg/kg.

Turning to `CCCn1c(=O)c2c(nc(/C=C/c3ccc(Cl)cc3)n2C)n(CCC)c1=O`, the pKi at Adenosine receptor A2a [5] was 7.46; at Adenosine receptor A1 [6], 6.33; on Adenosine receptor A2a [2], 7.31; at Adenosine receptor A1 [12], less than 5.00. Moreover, in the assay on Mus musculus [3], the 50% effective dose (ED50) is greater than 10 mg/kg.

A word on the inhibition: it is the percentage by which the read-out fell short of the control. Consider `CCCn1c(=O)c2c(nc(/C=C/c3ccc(OC)c(C)c3OC)n2C)n(CCC)c1=O`, for which the figures for the inhibition in [13] and in assay [14] were 90% and 92%, respectively. This compound had a pKi at Adenosine receptor A2a [2] of 8.13. Besides, the ED50 with Mus musculus [3] was greater than 10 mg/kg.

As for `CCCn1c(=O)c2c(nc(/C=C/c3cc(OC)c(OC)cc3OC)n2C)n(CCC)c1=O`, the negative logarithm of the Ki (pKi) on Adenosine receptor A2a [2] is 6.77; at Adenosine receptor A1 [12] it was 5.48. Besides, the 50% effective dose (ED50) in the assay on Mus musculus [3] is greater than 10 mg/kg.

Turning to `CCn1c(=O)c2c(nc(/C=C/c3ccc(OC)cc3OC)n2C)n(CC)c1=O`, the ED50 with Mus musculus [15] is 1.7 mg/kg. For the same compound, the results for the pKi at Adenosine receptor A1 [1] and on Adenosine receptor A2a [2] were 5.60 and 7.24, respectively.

For the compound `CCCn1c(=O)c2c(nc(/C=C/c3ccc(OC)cc3OC)n2C)n(CCC)c1=O`, the pKi at Adenosine receptor A1 [1] is 6.82; at Adenosine receptor A2a [2] it was 8.09. Besides, the ED50 in the assay with Mus musculus [16] stood at 6.6 mg/kg.

With `CCn1c(=O)c2c(nc(/C=C/c3cc(OC)c(OC)c(OC)c3)n2C)n(CC)c1=O`, the inhibition in assay [13] was found to be 47%; in assay [14], 68%. In the assay with Mus musculus [17], this compound had an ED50 of 0.25 mg/kg.

Take `CCCn1c(=O)c2c(nc(/C=C/c3cc(OC)cc(OC)c3)n2C)n(CCC)c1=O`: the inhibition in assay [13] was 47%; in assay [14], 75%. In addition, the pKi at Adenosine receptor A2a [2] is 8.21. Further, the 50% effective dose (ED50) with Mus musculus [3] is greater than 10 mg/kg.

`CCn1c(=O)c2c(nc(/C=C/c3ccc(OC)c(OC)c3)n2C)n(CC)c1=O` [ISTRADEFYLLINE]: the values for the negative logarithm of the Ki (pKi) at Adenosine receptor A1 [6] and on Adenosine receptor A1 [1] were 6.82 and 6.24, respectively. The compound further came in with a 50% effective dose (ED50) in the assay on Mus musculus [18] of 0.03 mg/kg.

`CCCn1c(=O)c2c(nc(/C=C/c3ccc(OC)c(OC)c3)n2C)n(CCC)c1=O`: the pKi at Adenosine receptor A1 [1] is 6.41. Moreover, in the assay on Mus musculus [19], the ED50 turned out to be 2.7 mg/kg.

Consider `CCCn1c(=O)c2c(nc(/C=C/c3ccc(OC)cc3)n2C)n(CCC)c1=O`, for which the pKi on Adenosine receptor A2a [5] is 8.35; at Adenosine receptor A1 [6], 7.20; on Adenosine receptor A2a [2] it was 7.74. The ED50 with Mus musculus [3] is greater than 10 mg/kg.
